Experimental data published in paper PMC2630848, “Acetylcholinesterase-Inhibiting Activity of Pyrrole Derivatives from a Novel Marine Gliding Bacterium, Rapidithrix thailandica” (Marine Drugs, 2008).

Biological target: acetylcholinesterase (AChE) (Tetronarce californica, UniProt P04058)
Assay: Ellman colorimetric AChE assay with acetylthiocholine iodide and DTNB, […] nm, triplicate
Type: biochemical

Chain of acetylcholinesterase (AChE) (P04058 22-564): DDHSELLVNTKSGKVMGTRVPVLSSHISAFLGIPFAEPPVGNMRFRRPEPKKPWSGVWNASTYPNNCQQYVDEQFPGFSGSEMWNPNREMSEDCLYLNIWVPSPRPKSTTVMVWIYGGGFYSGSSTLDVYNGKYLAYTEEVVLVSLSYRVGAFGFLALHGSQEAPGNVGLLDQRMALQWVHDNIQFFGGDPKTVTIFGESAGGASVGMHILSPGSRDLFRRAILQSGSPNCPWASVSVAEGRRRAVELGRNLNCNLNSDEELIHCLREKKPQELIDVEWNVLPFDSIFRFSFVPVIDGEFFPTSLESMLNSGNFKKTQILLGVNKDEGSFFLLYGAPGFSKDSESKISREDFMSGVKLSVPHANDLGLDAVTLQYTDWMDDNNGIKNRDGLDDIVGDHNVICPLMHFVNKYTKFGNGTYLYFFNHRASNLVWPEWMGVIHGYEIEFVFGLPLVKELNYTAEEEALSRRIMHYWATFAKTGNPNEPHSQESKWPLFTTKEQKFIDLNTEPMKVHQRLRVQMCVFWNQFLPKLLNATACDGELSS

SMILES: Cc1nc2ccccc2c2cc[nH]c12 [compound 1, 4-Methyl-3H-pyrrolo[2,3-c]quinoline]
- IC50: 4.9 ± 0.9 µM
